Data taken from BindingDB's records for doi:10.1124/mol.58.6.1511 (Albert Einstein College of Medicine, 2000).

Assays:
[1] = target: Solute carrier organic anion transporter family member 2A1 (Homo sapiens, UniProt Q92959)
[2] = target: Prostaglandin F2-alpha receptor (Human, UniProt P43088)
Sequence of Prostaglandin F2-alpha receptor (P43088 whole entry): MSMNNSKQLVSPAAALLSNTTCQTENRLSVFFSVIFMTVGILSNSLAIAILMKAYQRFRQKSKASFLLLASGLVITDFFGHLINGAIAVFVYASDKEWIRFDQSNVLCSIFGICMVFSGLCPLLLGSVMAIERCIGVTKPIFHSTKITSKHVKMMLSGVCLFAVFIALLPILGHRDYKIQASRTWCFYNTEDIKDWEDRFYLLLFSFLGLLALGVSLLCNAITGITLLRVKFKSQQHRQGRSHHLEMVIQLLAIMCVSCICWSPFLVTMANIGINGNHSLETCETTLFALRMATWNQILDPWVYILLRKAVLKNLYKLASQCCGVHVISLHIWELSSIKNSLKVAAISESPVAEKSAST

CCCCC[C@H](O)/C=C/C1[C@H](O)C[C@H](O)[C@@H]1C/C=C\CCCC(=O)O (stereo partly drawn) [(Z)-7-[(1R,3R,5S)-3,5-Dihydroxy-2-((E)-(S)-3-hydroxy-oct-1-enyl)-cyclopentyl]-hept-5-enoic acid]
Ki [1]: 0.045 µM

CCCCC[C@@H](O)/C=C/[C@@H]1[C@@H](C/C=C/CCCC(N)=O)[C@@H](O)C[C@H]1O [AGN 190911]
Ki [2]: > 10 µM | Ki [1]: 7.3 µM

CCCCC[C@@H](O)/C=C/[C@@H]1[C@@H](C/C=C/CCCCN)[C@@H](O)C[C@H]1O [AGN 191088]
Ki [2]: > 10 µM | Ki [1]: > 10 µM

CCCCC[C@@H](O)/C=C/[C@@H]1[C@@H](C/C=C/CCCC(=O)NS(C)(=O)=O)[C@@H](O)C[C@H]1O [AGN 191365]
Ki [2]: > 10 µM | Ki [1]: 0.307 µM

CCCCC[C@@H](O)/C=C/[C@@H]1[C@@H](C/C=C/CCCc2nnn[nH]2)[C@@H](O)C[C@H]1O [AGN 191366]
Ki [2]: 8.13 µM | Ki [1]: 0.071 µM

CCCCC[C@H](/C=C/[C@@H]1[C@@H](C/C=C/CCCC(=O)O)[C@@H](O)C[C@H]1O)OC [AGN 191995]
Ki [2]: 0.228 µM | Ki [1]: > 10 µM

CCCCC[C@H](/C=C/[C@@H]1[C@@H](C/C=C/CCCC(N)=O)[C@@H](O)C[C@H]1O)OC [AGN 192151]
Ki [2]: > 10 µM | Ki [1]: > 10 µM

CCCCC[C@@H](O)/C=C/[C@@H]1[C@@H](C/C=C/CCCS(=O)(=O)NC(C)=O)[C@@H](O)C[C@H]1O [AGN 194394]
Ki [2]: > 10 µM | Ki [1]: 0.034 µM

CC(C)OC(=O)CCC/C=C\C[C@@H]1[C@@H](/C=C/[C@@H](O)CCc2ccccc2)[C@H](O)C[C@@H]1O [CAS_130209-76-6]
Ki [2]: 0.018 µM | Ki [1]: 0.168 µM

CCCCCC(O)C=CC1C(O)CC(O)C1CC=CCCCC(=O)OC(C)C (stereo not drawn) [PGF2 Alpha, 1-isopropyl ester]
Ki [2]: 3.2 µM | Ki [1]: 5 µM
